Where two headings read alike, the source gives them in different places.

23 compounds from patent US11331299B2, “Medicinal use of serrulatane diterpenes” (The University of Sydney, priority 2016, dated 2022) can be followed below.

In one data set the test system is HREC. In words: OncoPanel normal cell proliferation assay (3-day). To be noted: 72 h, renal mixed epithelial, 3-day incubation; for EC50: read-out: Cell Count EC50; for GI50: read-out: Cell Count GI50; for IC50: read-out: Cell Count IC50. The data set is classed as cell-based.
For the next data set, the system named is CCD 841 CoN. Nature of the data set: OncoPanel normal cell proliferation assay (3-day). Conditions: Homo sapiens, 72 h, colon epithelial, 3-day incubation; for EC50: read-out: Cell Count EC50; for GI50: read-out: Cell Count GI50; for IC50: read-out: Cell Count IC50. It counts as cell-based.
A further data set deals with Wi38. In words: OncoPanel normal cell proliferation assay (3-day). The data set is classed as cell-based. To be noted: Homo sapiens, WI-38, 72 h, Wi38, lung fibroblast, 3-day incubation; for EC50: read-out: Cell Count EC50; for GI50: read-out: Cell Count GI50; for IC50: read-out: Cell Count IC50.
The next data set concerns HMEC. Nature of the data set: OncoPanel normal cell proliferation assay (3-day). It counts as cell-based. Conditions: Homo sapiens, 72 h, HMEC, mammary epithelial, 3-day incubation; for EC50: read-out: Cell Count EC50; for GI50: read-out: Cell Count GI50; for IC50: read-out: Cell Count IC50.
The target in data set [1] is receptors (Bioprint panel). Nature of the data set: biochemical. The data set is classed as binding. To be noted: read-out: Reference Compound IC50.
For data set [2], the system named is human pancreatic carcinoma MIA PaCa-2. To be noted: 80 mg/kg Q4D x 4 IP.
Another data set has as its target T1, PHIP(2) (h) bromodomain (Homo sapiens, UniProt Q8WWQ0).
T1 construct: Bromodomain
Nature of the data set: Epigenetic binding assay, Bromodomain. Conditions: Table 4; read-out: Reference IC50.

The format of data set [3] is in vivo, female NOD/SCID mice. To be noted: Study 1, IP, 35 mg/kg. As for the experimental part:
Two studies were conducted by Eurofins Panlabs Taiwan, Ltd. The purpose of Study 1 was to assess the possible adverse effects of Compound 1 alone or in combination with […] in Maximum Tolerated Dose (MTD) assay. The purpose of Study 2 is a follow-up study performed at escalating doses.
Compound 1 was dissolved in 10% Tween 20/90% PBS or 20% Tween 20/80% PBS for IP injections. Compound 1 was administrated alone or in combination with […] at a dosing volume of 10 or 20 mL/kg for each substance.
For mortality, test substance (Compound 1; 100 mg/kg) alone or in combination with […] (8.75, 17.5, or 35 mg/kg; given on the same day) was administered to mice by IP injection to evaluate the possible adverse effects in MTD assay. […]. […]
A follow-up MTD study was performed to evaluate for the adverse effects of the test substance (Compound 1) at escalating doses alone or in combination with […] (17.5 mg/kg) via IP in a group of 3 female NOD/SCID mice at 6-7 weeks of age.
For mortality, treatment with Compound 1 at escalating doses (200 mg/kg) alone and in combination with […] (17.5 mg/kg; given on the same day) were administered by IP injection to a group of 3 female NOD/SCID mice at 6-7 weeks of age. The mortality was monitored at 30 min and again at 3, 24, 48 and 72 hours after compound administrations.
For body weight, test substance (Compound 1) at escalating doses (200 mg/kg) alone or in combination with […] (17.5 mg/kg; given on the same day) were administered by IP injection to a group of 3 female NOD/SCID mice at 6-7 weeks of age. The body weight of each animal was measured and recorded daily for 3 days.
For behavioral, symptomatic i.e. neurological and autonomic signs, test substance (Compound 1; 200 mg/kg) alone or in combination with […] (17.5 mg/kg; given on the same day) were administered by IP injection to a group of 3 female NOD/SCID mice at 6-7 weeks of age. The animals were then observed for presences of acute toxic symptoms and autonomic effects for 30 min after the first dose.

The next data set deals with T2, SP140 (h) bromodomain (Homo sapiens, UniProt Q13342).
T2 construct: SP140 (h) bromodomain
Nature of the data set: Epigenetic binding assay, Bromodomain.

For a further data set, the target named is T3, ATAD2A (h) bromodomain (Homo sapiens, UniProt Q6PL18).
T3 construct: Bromodomain
T3 sequence (Q6PL18 980-1092 limits assumed): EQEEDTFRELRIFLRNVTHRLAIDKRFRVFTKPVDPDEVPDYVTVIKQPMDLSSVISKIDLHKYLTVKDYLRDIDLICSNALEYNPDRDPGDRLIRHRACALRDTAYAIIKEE
In words: Epigenetic binding assay, Bromodomain. Conditions: Table 9, inhibition/concentration-response curve; read-out: IC50.

In the next data set the target is T4, BRPF1-1 (h) bromodomain (Homo sapiens, UniProt P55201).
T4 construct: Bromodomain
T4 sequence (P55201 628-732 limits assumed): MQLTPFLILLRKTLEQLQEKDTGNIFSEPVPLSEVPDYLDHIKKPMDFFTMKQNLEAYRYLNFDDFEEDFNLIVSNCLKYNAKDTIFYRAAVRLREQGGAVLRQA
In words: Epigenetic binding assay, Bromodomain. To be noted: Table 4; read-out: Reference IC50.

T2 sequence (Q13342 754-857 limits assumed): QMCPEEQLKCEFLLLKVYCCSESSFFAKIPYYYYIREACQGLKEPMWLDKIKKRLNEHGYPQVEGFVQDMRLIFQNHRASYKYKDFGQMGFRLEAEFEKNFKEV

As to `C[C@@H]1C[C@@H]([C@H](O)CC2CC(=O)NC(=O)C2)C(=O)[C@@H](C)C1` [cycloheximide, reference compound], the 50% effective concentration (EC50) was found to be 117 nM in the data set with HREC, 505 nM in the data set with CCD 841 CoN, 285 nM in the data set on Wi38 and 3650 nM with HMEC. In addition, the 50% growth inhibitory concentration (GI50) in the data set with HREC amounted to 36.9 nM; with CCD 841 CoN, 588 nM; in the data set with Wi38, 369 nM; with HMEC, 306 nM. Further, the IC50 with HREC was 593 nM; in the data set with CCD 841 CoN, 2770 nM; in the data set with Wi38 it was 871 nM; in the data set on HMEC, 10000 nM.

Take glucagon: the IC50 in data set [1] (glucagon (h) (agonist radioligand)) amounted to 1 nM.

Turning to `Nc1ccn([C@@H]2O[C@H](CO)[C@@H](O)C2(F)F)c(=O)n1` [Gemcitabine, reference compound], the “% T/C” value in data set [2] (Day 1) was determined as 99%; in data set [2] (Day 4), 100%; in [2] (Day 8), 81%; in data set [2] (Day 11), 70%; in data set [2] (Day 15) it was 55%. In addition, the “% TGI” value in data set [2] (Day 1) stood at 1%; in data set [2] (Day 4), 0%; in data set [2] (Day 8), 19%; in data set [2] (Day 11), 30%; in data set [2] (Day 15), 45%. Moreover, the “Tumor Volume, Mean” value in [2] (Day 1) is reported as 89 mm3; in data set [2] (Day 4), 94 mm3; in data set [2] (Day 8) it was 107 mm3; in [2] (Day 11), 139 mm3; in [2] (Day 15) it was 207 mm3.

Consider `CCCCC[C@H](O)/C=C/[C@@H]1[C@@H](C/C=C\CCCC(=O)O)[C@@H](O)C[C@H]1O` [PGF2alpha], for which, in [1] ([…] (h) (agonist radioligand)), the IC50 turned out to be 3 nM.

In the case of `COc1ccc(CCc2nc3cc(-c4c(C)noc4C)ccc3n2C[C@H](C)N2CCOCC2)cc1Cl` [SGC-CBP30, reference compound], the half-maximal inhibitory concentration (IC50) on PHIP(2) (h) bromodomain was 130 nM.

For the compound carboplatin [reference compound], the “Response (death/test)” value in [3] (30 min), in data set [3] (3 hrs), in data set [3] (Day 1), in data set [3] (Day 2) and in data set [3] (Day 3) was 0/3 in each case.

As for `C=C(C)[C@@H]1[C@H]2OC(=O)[C@@H]1[C@]1(O)C[C@H]3O[C@]34C(=O)O[C@H]2[C@]14C` [picrotoxinin], in data set [1] (Cl- channel (GABA-gated) (antagonist radioligand)), the IC50 was 330 nM.

For the compound TNF-alpha, the IC50 in data set [1] (CYTOKINES TNF-alpha (h) (agonist radioligand)) stood at 0.16 nM.

Take alpha -bungarotoxin: the half-maximal inhibitory concentration (IC50) in data set [1] amounted to 1.9 nM.

As to `CCCCCCCCCCCCCCCCOC[C@H](COP(=O)([O-])OCC[N+](C)(C)C)OC(C)=O` [Compound C16-PAF], the half-maximal inhibitory concentration (IC50) in data set [1] (PLATELET ACTIVATED FACTOR PAF (h) (agonist radioligand)) worked out at 3.4 nM.

Consider NPY, for which the IC50 in data set [1] (NE[…] Y1 (h) (agonist radioligand)) was determined as 0.16 nM.

`C=C(C)[C@H]1CN[C@H](C(=O)O)[C@H]1CC(=O)O` [kainic acid]: the 50% inhibitory concentration (IC50) in [1] stood at 23 nM.

In the case of `COc1ccc([C@@H]2Sc3ccccc3N(CCN(C)C)C(=O)[C@@H]2OC(C)=O)cc1` [diltiazem], the IC50 in [1] (Ca2+ channel (L, diltiazem site) (benzothiazepines) (antagonist radioligand)) is 57 nM.

As for `Cc1cc(/N=N/c2cc(S(=O)(=O)O)c(C)cc2C)c(N)cc1O` [Ischemin, reference compound], the IC50 at SP140 (h) bromodomain (Table 4, read-out: Reference IC50) turned out to be 86000 nM; at SP140 (h) bromodomain (Table 9, inhibition/concentration-response curve, read-out: IC50) it was 11000 nM; at ATAD2A (h) bromodomain it was 5200 nM.

`CN[C@@H]1C[C@H]2O[C@@](C)([C@@H]1OC)n1c3ccccc3c3c4c(c5c6ccccc6n2c5c31)C(=O)NC4` [Staurosporine]: the concentration for 50% growth inhibition (GI50) in the data set with HREC was 0.5 nM; in the data set with CCD 841 CoN, 0.19 nM; in the data set with Wi38, 0.33 nM; in the data set with HMEC, 0.91 nM. In addition, the 50% effective concentration (EC50) in the data set with Wi38 amounted to 0.49 nM; in the data set on HMEC it was 2.29 nM.

For the compound `N#CC(C#N)=NNc1cccc(Cl)c1` [Carbonyl cyanide 3-chlorophenylhydrazone], the EC50 was 553 nM in the data set with HREC, 10000 nM with CCD 841 CoN, 8840 nM with Wi38 and above 10000 nM in the data set on HMEC. In addition, the concentration for 50% growth inhibition (GI50) in the data set on HREC was found to be 308 nM; in the data set on CCD 841 CoN, 6210 nM; with Wi38 it was 6150 nM; in the data set on HMEC, 175 nM. Further, the half-inhibitory concentration (IC50) in the data set with HREC is 1520 nM; in the data set with CCD 841 CoN, 10000 nM; in the data set with Wi38, 8840 nM; with HMEC, above 10000 nM.

With `N[C@@H](CCC(=O)O)C(=O)O` [L-glutamate], in data set [1] (GLUTAMATE CHANNELS AMPA (agonist radioligand)), the half-maximal inhibitory concentration (IC50) worked out at 370 nM.

Turning to omega -conotoxin GVIA, in [1], the IC50 worked out at 0.0017 nM.

As to `C[C@]12N[C@H](Cc3ccccc31)c1ccccc12` [MK 801], in data set [1] (GLUTAMATE CHANNELS PCP (antagonist radioligand)), the IC50 was 9.6 nM.

In the case of `CN1C(=O)CN=C(c2ccccc2)c2cc(Cl)ccc21` [diazepam], the half-inhibitory concentration (IC50) in data set [1] stood at 9.4 nM.

As to `C[C@H](NC[C@H](O)CP(=O)(O)CC1CCCCC1)c1ccc(Cl)c(Cl)c1` [CGP 54626], in data set [1] (GABA GABAB(1b) (h) (antagonist radioligand)), the half-inhibitory concentration (IC50) was 2.2 nM.

“[Nleu13]-motilin (FVPIFTYGELQRLQEKERNKGQ; Motilin norleucine at 13; UniProt P12872 26-47, looked up, variant M13L)”: the 50% inhibitory concentration (IC50) in data set [1] (motilin(h) (agonist radioligand)) was 0.89 nM.

`CCOC(=O)Nc1cc(-c2ccc(C)c(NS(C)(=O)=O)c2)nn2c(C)nnc12` [Bromosporine, reference compound]: on BRPF1-1 (h) bromodomain, the concentration for half-maximal inhibition (IC50) came out at 26 nM.
